Experimental findings from patent US9481687B2, “IRAK inhibitors and uses thereof” (Nimbus Iris, Inc., priority 2012, dated 2016) are described below.

Where a name gives a salt, the structure may show the parent alone.

Assay [1] deals with THP-1 cells. Nature of the assay: LPS-induced cytokine production assay, TNFα. The assay is classed as cell-based. As to conditions: Homo sapiens, 300 ng/mL LPS, 5 hours, read-out: TNF (5 h). How it is done: (§1) Provided compounds were also assayed in an LPS (Lipopolysacharide) or R848 (TLR-7 agonist) induced cytokine (e.g. TNFα and IL8) production assay in THP-1 cells, human peripheral blood mononuclear cells (hPBMC), and whole blood. The exemplary protocol for this assay in THP-1 cells was as follows below.
(§2) THP-1 cells from ATCC (TIB-202) were cultured in RPMI Medium 1640 (Invitrogen, Cat No. A10491-01), 10% fetal bovine serum (Invitrogen, Cat No. 10099141, Lot No. 8172882) containing 100 U/mL Penicillin, 100 μg/mL streptomycin (Invitrogen, Cat No. 15140-122), and 50 uM 2-Mercaptoethanol (Invitrogen, Cat No. 21985023). LPS-EK ultra pure (Invivogen, Cat No. tlrl-peklps) was used to induce IL8 and TNFα production, that is detected in the cell culture supernatant by IL8 HTRF kit (Cisbio, Cat No. 62IL8PEB) and TNFα HTRF kit (Cisbio, Cat No. 62TNFPEB), as per manufacturer instructions. Cells were cultured in 96 well assay plates at 100,000 cells per well, and compounds diluted in final 0.3% DMSO were pre-incubated with cells for 1 hour prior to stimulation with 300 ng/mL LPS. Cytokine production in cell supernatant was measured at 5 hours for TNFα and IL8 production, and for 16 hours for IL8 production and assessment of cell viability.

Assay [2] has as its system THP-1 cells. The experiment in a line: LPS-induced cytokine production assay, IL8. It counts as cell-based. As to conditions: Homo sapiens, 300 ng/mL LPS, 16 hours, read-out: IL-8 (16 h). The protocol: as §1, §2
A further assay deals with T1, IRAK4 (Homo sapiens, UniProt Q9NWZ3).
T1 construct: purchased CARNA Bioscience 09-145
T1 sequence (Q9NWZ3 1-460): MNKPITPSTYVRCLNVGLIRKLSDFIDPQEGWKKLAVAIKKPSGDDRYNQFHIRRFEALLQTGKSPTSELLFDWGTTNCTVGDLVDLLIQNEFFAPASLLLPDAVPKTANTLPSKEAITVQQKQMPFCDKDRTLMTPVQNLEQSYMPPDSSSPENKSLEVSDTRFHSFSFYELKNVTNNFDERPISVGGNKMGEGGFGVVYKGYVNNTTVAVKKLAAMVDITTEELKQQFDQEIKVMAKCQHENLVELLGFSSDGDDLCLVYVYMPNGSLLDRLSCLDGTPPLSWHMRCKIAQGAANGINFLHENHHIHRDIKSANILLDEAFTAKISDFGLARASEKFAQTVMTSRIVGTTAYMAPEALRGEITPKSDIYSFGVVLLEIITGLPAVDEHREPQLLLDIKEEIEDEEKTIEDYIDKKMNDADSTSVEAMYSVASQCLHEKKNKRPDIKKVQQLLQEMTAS
Nature of the assay: IRAK-4 activity inhibition assay (Caliper). As to conditions: 3.5 nM IRAK4, 37 μM ATP, 1.5 μM Peptide 8. It counts as biochemical. The protocol: A 1× kinase base buffer was prepared from 50 mM HEPES, pH 7.5 and 0.0015% Brij-35. A stop buffer was prepared from 100 mM HEPES, pH 7.5, 0.015% Brij-35, 0.2% Coating Reagent #3, and 50 mM EDTA.
Test compound was diluted to 50× of the final desired highest inhibitor concentration in reaction by 100% DMSO. 100 ul of this compound dilution was transferred to a well in a 96-well plate.
Test compound was serially diluted by transferring 30 μl to 60 μl of 100% DMSO in the next well and so forth for a total of 10 concentrations. 100 μl of 100% DMSO was added to two empty wells for no compound control and no enzyme control in the same 96-well plate.
A new 96-well plate was marked as intermediate plate. 5 μl of compound serial dilution was transferred from source plate to the corresponding wells of the intermediate plate. 45 μl of 1× kinase base buffer (KB buffer) was added to each well of the intermediate plate. The intermediate plate was placed for 10 min on a shaker.
5 μl of each well was transferred from the 96-well intermediate plate to a 384-well plate in duplicates. For example, A1 of the 96-well plate is transferred to A1 and A2 of the 384-well plate. A2 of the 96-well plate is transferred to A3 and A4 of the 384-well plate, and so on.
IRAK4 and DTT in 1× kinase base buffer was added. The 2.5× enzyme mix contained 8.8 nM IRAK4 and 5 mM DTT.
Peptide 8, ATP, MgCl2 and MnCl2 were added in the 1× kinase base buffer. The 2.5× peptide mix contained 3.75 μM peptide 8, 92.5 μM ATP, 12.5 mM MgCl2 and 2.5 mM MnCl2.
Assay plate already contained 5 μl of compound in 10% DMSO. Added 10 μl of 2.5× enzyme solution to each well of the 384-well assay plate, except no enzyme control wells. The final concentration of IRAK4 in reaction was 3.5 nM. Added 10 μl of 1× kinase base buffer to no enzyme control wells in the assay plate. Incubated at room temperature for 10 min.
Added 10 μl of 2.5× peptide solution to each well of the 384-well assay plate. The final concentration of Peptide 8 and ATP was 1.5 μM and 37 μM, respectively. Incubated at 28° C. for 40 minutes. Added 25 μl of stop buffer to stop reaction. Collected data on Caliper.
Copied conversion % data from Caliper program. Converted conversion % values to percent inhibition values. Percent inhibition=(max−conversion %)/(max−min)*100, where “max” means the conversion % of DMSO control and “min” means the conversion % of no enzyme control.

On to `NC(=O)c1ccc2sc3ncnc(N[C@H]4CC[C@H](N5CCOCC5)CC4)c3c2c1` [I-1, 4-(((1r,4r)-4-morpholinocyclohexyl)amino)benzo[4,5]thieno[2,3-d]pyrimidine-6-carboxamide], for which the IC50 with THP-1 cells [1] was not above 1 µM; in the assay with THP-1 cells [2], not above 1 µM; on IRAK4, not above 0.1 µM.
For `CN(C)[C@H]1CC[C@H](Nc2ncnc3sc4ccccc4c23)CC1` [I-2, (1r,4r)-N1-(benzo[4,5]thieno[2,3-d]pyrimidin-4-yl)-N4,N4-dimethylcyclohexane-1,4-diamine], the IC50 in the assay on THP-1 cells [1] was not above 1 µM; in the assay with THP-1 cells [2], not above 1 µM; at IRAK4 it was not above 0.1 µM.
As for `CN(CC(=O)N1CCCC1)[C@H]1CC[C@H](Nc2ncnc3sc4ccccc4c23)CC1` [I-3, 2-(((1r,4r)-4-(benzo[4,5]thieno[2,3-d]pyrimidin-4-ylamino)cyclohexyl)(methyl)amino)-1-(pyrrolidin-1-yl)ethanone], the IC50 was not below 1 µM with THP-1 cells [1], not above 1 µM with THP-1 cells [2] and not above 0.1 µM at IRAK4.
In the same order, the values of `c1ccc2c(c1)sc1ncnc(N[C@H]3CC[C@H](N4CCOCC4)CC3)c12` [I-4, N-((1r,4r)-4-morpholinocyclohexyl)benzo[4,5]thieno[2,3-d]pyrimidin-4-amine] are not above 1 µM, not above 1 µM and not above 0.1 µM.
In the same order, the values of `CCOC(=O)c1ccc2sc3ncnc(N[C@H]4CC[C@H](N(C)C)CC4)c3c2c1` [I-5, ethyl 4-(((1r,4r)-4-(dimethylamino)cyclohexyl)amino)benzo[4,5]thieno[2,3-d]pyrimidine-6-carboxylate] are not above 1 µM, not above 1 µM and not above 0.1 µM.
In the same order, the values of `CN(C)[C@H]1CC[C@H](Nc2ncnc3sc4ccc(C(N)=O)cc4c23)CC1` [I-6, 4-(((1r,4r)-4-(dimethylamino)cyclohexyl)amino)benzo[4,5]thieno[2,3-d]pyrimidine-6-carboxamide] are not below 1 µM, not above 1 µM and not above 0.1 µM.
On to `CN(C)[C@H]1CC[C@H](Nc2ncnc3sc4ccc(CO)cc4c23)CC1` [I-7, (4-(((1r,4r)-4-(dimethylamino)cyclohexyl)amino)benzo[4,5]thieno[2,3-d]pyrimidin-6-yl)methanol], for which the IC50 is not below 1 µM in the assay on THP-1 cells [1], not above 1 µM in the assay with THP-1 cells [2] and 0.1 to 1 µM against IRAK4.
In the case of `CCOC(=O)c1ccc2sc3ncnc(N[C@H]4CC[C@H](N5CCOCC5)CC4)c3c2c1` [I-8, Ethyl 4-(((1r,4r)-4-morpholinocyclohexyl)amino)benzo[4,5]thieno[2,3-d]pyrimidine-6-carboxylate], the IC50 at IRAK4 was 0.1 to 1 µM.
Still for that read-out and setting: with `OCc1ccc2sc3ncnc(N[C@H]4CC[C@H](N5CCOCC5)CC4)c3c2c1` [I-10, (4-(((1r,4r)-4-morpholinocyclohexyl)amino)benzo[4,5]thieno[2,3-d]pyrimidin-6-yl)methanol] the figure was 0.1 to 1 µM.
Still for that read-out and setting: for `N[C@H]1CC[C@H](Nc2ncnc3sc4ccccc4c23)CC1` [I-11, (1r,4r)-N1-(benzo[4,5]thieno[2,3-d]pyrimidin-4-yl)cyclohexane-1,4-diamine hydrochloride] the value was 0.1 to 1 µM; for `CN(C)[C@H]1CC[C@H](Oc2ncnc3sc4ccccc4c23)CC1` [I-12, (1r,4r)-4-(benzo[4,5]thieno[2,3-d]pyrimidin-4-yloxy)-N,N-dimethylcyclohexanamine], 0.1 to 1 µM.
Same read-out and setting: with `OCCc1ccc2sc3ncnc(O[C@H]4CC[C@H](N5CCOCC5)CC4)c3c2c1` [I-13, 2-(4-(((1r,4r)-4-morpholinocyclohexyl)oxy)benzo[4,5]thieno[2,3-d]pyrimidin-6-yl)ethanol] the figure was 0.1 to 1 µM; with `CNC(=O)c1ccc2sc3ncnc(N[C@H]4CC[C@H](N(C)C)CC4)c3c2c1` [I-14, 4-(((1r,4r)-4-(dimethylamino)cyclohexyl)amino)-N-methylbenzo[4,5]thieno[2,3-d]pyrimidine-6-carboxamide], 0.1 to 1 µM.
In the case of `OCCc1ccc2sc3ncnc(N[C@H]4CC[C@H](N5CCOCC5)CC4)c3c2c1` [I-15, 2-(4-(((1r,4r)-4-morpholinocyclohexyl)amino)benzo[4,5]thieno[2,3-d]pyrimidin-6-yl)ethanol], the IC50 on IRAK4 lay in the range of 0.1 to 1 µM.
Turning to `c1ccc2c(c1)sc1ncnc(O[C@H]3CC[C@H](N4CCOCC4)CC3)c12` [I-16, 4-((1r,4r)-4-(benzo[4,5]thieno[2,3-d]pyrimidin-4-yloxy)cyclohexyl)morpholine], the IC50 at IRAK4 is 0.1 to 1 µM.
On to `CCNC(=O)c1ccc2sc3ncnc(N[C@H]4CC[C@H](N(C)C)CC4)c3c2c1` [I-17, 4-(((1r,4r)-4-(dimethylamino)cyclohexyl)amino)-N-ethylbenzo[4,5]thieno[2,3-d]pyrimidine-6-carboxamide], for which, on IRAK4, the IC50 is 0.1 to 1 µM.
In the case of `NC(=O)Cc1ccc2sc3ncnc(N[C@H]4CC[C@H](N5CCOCC5)CC4)c3c2c1` [I-18, 2-(4-(((1r,4r)-4-morpholinocyclohexyl)amino)benzo[4,5]thieno[2,3-d]pyrimidin-6-yl)acetamide], the IC50 at IRAK4 was in the range of 1 to 10 µM.
The same measure, in the same setting: for `CN(C)C(=O)c1ccc2sc3ncnc(N[C@H]4CC[C@H](N(C)C)CC4)c3c2c1` [I-19, 4-(((1r,4r)-4-(dimethylamino)cyclohexyl)amino)-N,N-dimethylbenzo[4,5]thieno[2,3-d]pyrimidine-6-carboxamide] the value was 1 to 10 µM; for `CN(C)C(=O)c1ccc2sc3ncnc(N[C@H]4CC[C@H](N5CCOCC5)CC4)c3c2c1` [I-20, N,N-dimethyl-4-(((1r,4r)-4-morpholinocyclohexyl)amino)benzo[4,5]thieno[2,3-d]pyrimidine-6-carboxamide], 1 to 10 µM.
Still for that read-out and setting: for `CCOC(=O)Cc1ccc2sc3ncnc(N[C@H]4CC[C@H](N5CCOCC5)CC4)c3c2c1` [I-21, Ethyl 2-(4-(((1r,4r)-4-morpholinocyclohexyl)amino)benzo[4,5]thieno[2,3-d]pyrimidin-6-yl)acetate] the value was 1 to 10 µM.
Same read-out and setting: for `CCOC(=O)c1cccc2sc3ncnc(N[C@H]4CC[C@H](N(C)C)CC4)c3c12` [I-22, ethyl 4-(((1r,4r)-4-(dimethylamino)cyclohexyl)amino)benzo[4,5]thieno[2,3-d]pyrimidine-5-carboxylate] the value was not below 10 µM; for `CN(C)[C@H]1CC[C@H](Nc2ncnc3sc4cccc(CO)c4c23)CC1` [I-23, (4-(((1r,4r)-4-(dimethylamino)cyclohexyl)amino)benzo[4,5]thieno[2,3-d]pyrimidin-5-yl)methanol], not below 10 µM.
